# Literature values, collected in patent US7956212B2 (XenoPort, Inc., priority 2004, dated 2011).
# Key:
# [1] = rats
# [2] = following oral administration
# [3] = patients, administered alone
compound,measurement,setting,value
C[C@@](Cc1ccc(O)c(O)c1)(NN)C(=O)O [carbidopa],absorption following rectal administration,[1],poor
CC(C)(C)C(=O)Oc1ccc(C[C@H](N)C(=O)O)cc1O [NB-355],levels of levodopa,[2],low
"N[C@@H](Cc1ccc(O)c(O)c1)C(=O)O [levodopa, L-3,4-dihydroxyphenylalanine]",half-life of levodopa in plasma,[3],about 50 min
